Data reported in US20260191850A1, “USE OF 8-HYDROXYQUINOLINE DERIVATIVE” (Jiangsu Yahong Meditech Co., Ltd., priority 2022, published 2026).
Several values for one entry are separate records, joined by “and”; a condition that tells them apart may be missing. Equal values may be shown once. Where a name gives a salt, the structure may show the parent alone. Read-outs that look alike come from different tables or passages of the source.

Experiments:
[1] = system: Human Papillomavirus 18 (HPV18); assay: Transient transfection HPV replication assay (E1/E2 plasmids, NanoLuc reporter), HPV18; format: cell-based; conditions: HPV18 strain KC470230.1, C-33 A cells; for EC50: 48 hours
Protocol: (§1) The antiviral activity of 7-nitro-8-hydroxyquinoline derivatives against human papillomavirus (HPV) was tested and evaluated using transient transfection assays. This evaluation system included plasmids expressing viral helicase E1 and replication origin binding protein E2, plasmids containing NanoLuc gene of which the expression was driven by a TK promoter (Promega company), and replication origin sequences of human papillomavirus strains listed below. […] The positions of replication origin sequences of the three NanoLuc reporter plasmids were 7825-7993:1-99, 7662-7901:1-99, and 7740-7837:1-102 for HPV-11 (NCBI Accession No. HE611260.1), HPV-16 (NCBI Accession No. KP212151.1), and HPV-18 (NCBI Accession No. KC470230.1), respectively. The positions of E1 open reading frame (ORF) sequences corresponding to HPV-11, HPV-16 and HPV-18 were 832-2781, 864-2813 and 914-2887 in the same sequences, respectively. The positions of E2 open reading frame (ORF) sequences corresponding to HPV-11, HPV-16 and HPV-18 were 2723-3826, 2755-3852 and 2817-3908 in the same sequences, respectively. The cells used for transient transfection were C-33A cells (ATCC HTB-31), and the culture medium was DMEM supplemented with Earle's salt, L-glutamine and 2% fetal bovine serum. In the experiment, the NanoLuc expression plasmid (5 ng/well) was co-transfected with the E1 and E2 expression plasmids of the homologous virus by using Lipofectamine LTXL and Plus Reagent (Invitrogen product, Thermo Fisher Scientific company). […] Meanwhile, the transfected cells were also seeded into duplicated dishes containing the same dilution of test drugs to assess cytotoxicity. All transfected monolayer cells were incubated at 37° C. for 48 hours. The NanoLuc activity expressed by the reporter plasmids was detected with Nano-Glo reagent (Promega company), the cell viability in cytotoxicity plates was measured with CellTiter-Glo reagent (Promega company), and the luminescence intensity was quantified on a microplate reader. The meanings of EC50, CC50, and SI50 were the same as those well-known in the art (where SI50=CC50/EC50), and were not described here.
(§2) J Med Chem. 2016; 59 (23): 10470-8. • Kachaeva, M. et al. In vitro activity of novel 1,3-oxazole derivatives against HPV. Ibnosina J Med Biomed Sci. 2017; 9 (4): 111-8.

[2] = system: Human Papillomavirus 16 (HPV16); assay: Transient transfection HPV replication assay (E1/E2 plasmids, NanoLuc reporter), HPV16; format: cell-based
Protocol: as §1, §2

[3] = system: C-33A cells (ATCC HTB-31); assay: Cytotoxicity in transfected cells, cell viability with CellTiter-Glo
Protocol: as §1, §2

[4] = system: Human Papillomavirus 11 (HPV11); assay: Transient transfection HPV replication assay (E1/E2 plasmids, NanoLuc reporter), HPV11; format: cell-based; conditions: HPV11 strain HE611260.1, C-33 A cells; for EC50: 48 hours
Protocol: as §1, with “here. […]” for “here.”

[5] = Cytotoxicity in transfected cells, cell viability with CellTiter-Glo; conditions: human
Protocol: as §1, §2

[6] = C-33 A cells transfected with HPV11 (HE611260.1) plasmids, 48 hours
[7] = C-33 A cells transfected with HPV16 (KP212151.1) plasmids, 48 hours
[8] = C-33 A cells transfected with HPV18 (KC470230.1) plasmids, 48 hours
[9] = Human papillomavirus 16, C-33-A, 48 h

CN(C)C(=O)N1CCN(c2ccnc3c(O)c([N+](=O)[O-])ccc23)CC1 [Example 25, 4-(8-hydroxy-7-nitroquinolin-4-yl)-N,N-dimethylpiperazine-1-carboxamide]
EC50 [1]: 100 nM
EC50 ([2]; HPV16 strain KP212151.1, C-33 A cells, 48 hours, read-out: EC50): 90 nM
CC50 [3, 6]: 3.36 µM
CC50 [3, 7]: 7.53 µM
CC50 [3, 8]: 5.88 µM
EC50 [4]: < 50 nM

O=[N+]([O-])c1c(Br)c(Cl)c2cccnc2c1O [Compound 114, 6-bromo-5-chloro-7-nitroquinolin-8-ol]
CC50 at 48 h [5]: 30 µM
EC50 ([4]; human papillomavirus 11): > 6000 nM

O=[N+]([O-])c1ccc2c(Cl)c(C3CC3)cnc2c1O [Compound 74, 4-chloro-3-cyclopropyl-7-nitroquinolin-8-ol]
EC50 ([1]; human papillomavirus 18): < 50 nM
EC50 [2, 9]: 150 nM
CC50 at 48 h ([5]; CC50): 34.4 µM
EC50 ([4]; human papillomavirus 11): 570 nM

O=[N+]([O-])c1ccc2c(C3CCCCC3)ccnc2c1O [Example 32, 4-cyclohexyl-7-nitroquinolin-8-ol]
CC50 [3]: > 150 µM
EC50 [4]: 3990 nM

O=[N+]([O-])c1cc(Cl)c2c(C(F)(F)F)ccnc2c1O [Compound 73, 5-chloro-7-nitro-4-(trifluoromethyl)-quinolin-8-ol hydrochloride]
EC50 [2, 9]: 70 nM
CC50 at 48 h ([5]; CC50, C-33 A cells transfected with HPV11 (HE611260.1) plasmids, 48 hours): 8.5 µM
CC50 at 48 h ([5]; CC50, C-33 A cells transfected with HPV16 (KP212151.1) plasmids, 48 hours): 8.32 µM
EC50 ([4]; human papillomavirus 11): 60 nM

O=[N+]([O-])c1cc(Cl)c2c(Cl)ccnc2c1O [Compound 29, 4,5-dichloro-7-nitroquinolin-8-ol]
CC50 at 48 h [5]: 8.74 µM
EC50 ([4]; human papillomavirus 11): 2960 nM

O=[N+]([O-])c1c(Cl)c(Cl)c2cccnc2c1O [Compound 115, 5,6-dichloro-7-nitroquinolin-8-ol]
CC50 at 48 h ([5]; CC50): 112 µM
EC50 ([4]; human papillomavirus 11): > 30000 nM

Nc1nc2c(ncn2CCOCP(=O)(O)O)c(=O)[nH]1 [Positive control drug, 9-[2-(phosphonylmethoxy)ethyl]guanine, reference compound]
EC90 [1]: > 150 µM
EC90 ([2]; HPV16 strain KP212151.1, C-33 A cells): 2300 nM
CC50 [3, 6]: > 150 µM
CC50 [3, 7]: > 150 µM
CC50 [3, 8]: > 150 µM
EC90 [4]: 4.47 µM
EC50 [4]: 1260 nM and 1030 nM

Cc1cc(C#N)c(O)c2ncccc12 [Compound A1]
CC50 at 48 h ([5]; CC50): 20.2 µM
EC50 ([4]; human papillomavirus 11): > 6000 nM

O=[N+]([O-])c1ccc2c(C3CCCCC3)ccnc2c1O [Compound 32, 4-cyclohexyl-7-nitroquinolin-8-ol]
EC50 ([1]; human papillomavirus 18): < 50 nM
EC50 [2, 9]: 80 nM
EC50 ([4]; human papillomavirus 11): < 50 nM

O=[N+]([O-])c1ccc2c(C(F)(F)F)ccnc2c1O [Compound 62, 7-nitro-4-trifluoromethylquinolin-8-ol]
CC50 at 48 h ([5]; CC50): 5.5 µM
EC50 ([4]; human papillomavirus 11): > 1200 nM

Cc1ccnc2c(O)c(C#N)cc(Cl)c12 [Compound 131, 4-methyl-5-chloro-7-cyano-8-hydroxyquinoline]
EC50 ([1]; human papillomavirus 18): 140 nM
EC50 [2, 9]: 550 nM
EC50 ([4]; human papillomavirus 11): 530 nM

O=[N+]([O-])c1ccc(O)c2ncccc12 [Compound A2, 5-nitro-8-hydroxyquinoline, reference compound]
EC50 ([1]; human papillomavirus 18): 1010 nM
EC50 ([4]; human papillomavirus 11): 1040 nM

N#Cc1c(Cl)c(Cl)c2cccnc2c1O [Compound 133, 5,6-dichloro-7-cyano-8-hydroxyquinoline]
CC50 at 48 h ([5]; CC50): 5.59 µM
EC50 ([4]; human papillomavirus 11): > 1200 nM

CNc1c([N+](=O)[O-])c(O)c2ncccc2c1Cl [Compound 7, 5-chloro-6-(methylamino)-7-nitroquinolin-8-ol]
CC50 at 48 h ([5]; CC50): 19.1 µM
EC50 ([4]; human papillomavirus 11): 5220 nM

O=[N+]([O-])c1ccc2c(NC3COC3)ccnc2c1O [Example 19, 7-nitro-4-(3-oxetanylamino)quinolin-8-ol]
CC50 [3, 6]: 4 µM
EC50 [4]: 520 nM

4-methoxy-7-nitroquinolin-8-ol [Example 21]
CC50 [3]: 22.2 µM
EC50 [4]: > 6000 nM

O=[N+]([O-])c1c(Cl)c(F)c2cccnc2c1O [Compound 123, 6-chloro-5-fluoro-7-nitroquinolin-8-ol]
CC50 at 48 h ([5]; CC50): 29.8 µM
EC50 ([4]; human papillomavirus 11): > 6000 nM

O=[N+]([O-])c1cc(Cl)c2c(N3CCCCC3)ccnc2c1O [Compound 36, 5-chloro-7-nitro-4-piperidinylquinolin-8-ol]
EC50 ([1]; human papillomavirus 18): 270 nM
EC50 [2, 9]: 690 nM
EC50 ([4]; human papillomavirus 11): < 50 nM
